Key:
Assay in all cases: relative viability (nuclei count vs DMSO), 5 days (fraction); higher = more cells survive
[1] = compound: CN1C=C(C2=CC=CC=C21)/C=C\3/C4=C(C=CC=N4)NC3=O + Cc1nc(NC(=O)N2CCC[C@H]2C(N)=O)sc1-c1ccnc(C(C)(C)C(F)(F)F)c1 [Alpelisib] (partner 2 µM)
How it was run: (§1)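 Lung cancer cell lines in 1536-well plates were dosed by pin tool the day after seeding, either with one drug alone or with a fixed anchor-drug dose plus five library-drug doses (not always all listed) in √10 steps. After 5 days, cells were fixed and their nuclei stained in one step (final 0.05% Triton X-100, 1% formaldehyde, 1 ug/ml Hoechst), then counted on 4× images. Relative viability is the nuclei count in treated wells divided by that in vehicle wells. Values are medians of duplicate plates.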

[2] = compound: CN1C=C(C2=CC=CC=C21)/C=C\3/C4=C(C=CC=N4)NC3=O + C[C@@H](Oc1cc(-c2cnn(C3CCNCC3)c2)cnc1N)c1c(Cl)ccc(F)c1Cl [Crizotinib] (partner 1 µM)
How it was run: as §1

Trametinib + Linsitinib = compound: CC(=O)Nc1cccc(-n2c(=O)n(C3CC3)c(=O)c3c(Nc4ccc(I)cc4F)n(C)c(=O)c(C)c32)c1 [Trametinib] + C[C@]1(O)C[C@@H](c2nc(-c3ccc4ccc(-c5ccccc5)nc4c3)c3c(N)nccn32)C1 [Linsitinib] (partner 1 µM)
How it was run: as §1

[3] = compound: CN1C=C(C2=CC=CC=C21)/C=C\3/C4=C(C=CC=N4)NC3=O + CC(C)C[C@H](NC(=O)[C@H](Cc1ccccc1)NC(=O)c1cnccn1)B(O)O [Bortezomib] (partner 0.002 µM)
How it was run: as §1

Row | Cell Line | relative viability ([1]; first compound 0.02 µM) | relative viability ([1]; first compound 0.06325 µM) | relative viability ([1]; first compound 0.2 µM) | relative viability ([1]; first compound 0.6325 µM) | relative viability ([1]; first compound 2 µM) | relative viability ([2]; first compound 0.02 µM) | relative viability ([2]; first compound 0.06325 µM) | relative viability ([2]; first compound 0.2 µM) | relative viability ([2]; first compound 0.6325 µM) | relative viability ([2]; first compound 2 µM) | relative viability (Trametinib + Linsitinib; first compound 0.0025 µM) | relative viability (Trametinib + Linsitinib; first compound 0.007906 µM) | relative viability (Trametinib + Linsitinib; first compound 0.025 µM) | relative viability (Trametinib + Linsitinib; first compound 0.07906 µM) | relative viability (Trametinib + Linsitinib; first compound 0.25 µM) | relative viability ([3]; first compound 0.02 µM) | relative viability ([3]; first compound 0.06325 µM) | relative viability ([3]; first compound 0.2 µM) | relative viability ([3]; first compound 0.6325 µM) | relative viability ([3]; first compound 2 µM)
1 | PC-3 [JPC-3] | 1.02 | 0.99 | 1.03 | 1.03 | 0.989 | 0.878 | 0.949 | 0.954 | 0.96 | 0.966 | 0.98 | 0.854 | 0.854 | 0.797 | 0.624 | 0.7 | 0.893 | 0.804 | 0.838 | 0.761
2 | NCI-H1703 | 0.436 | 0.299 | 0.324 | 0.41 | 0.268 | 0.724 | 0.783 | 0.556 | 0.699 | 0.604 | 0.692 | 0.821 | 0.674 | 0.72 | 0.352 | 0.407 | 0.401 | 0.258 | 0.41 | 0.356
3 | EPLC-272H | 1.14 | 0.752 |  | 0.83 | 0.835 | 0.924 | 0.96 |  | 0.909 | 1.06 | 1.23 | 0.89 | 0.471 | 0.659 | 0.489 | 0.959 | 0.704 |  | 0.918 | 0.873
4 | NCI-H1792 | 0.536 | 0.723 | 0.608 |  | 0.581 | 0.759 | 0.999 | 0.87 |  | 0.898 | 0.489 | 0.39 | 0.363 | 0.234 | 0.164 | 0.784 | 0.977 | 0.835 |  | 0.889
5 | NCI-H2085 | 0.967 | 0.849 | 1.01 | 0.852 | 0.949 | 0.738 | 0.892 | 0.752 | 0.868 | 0.803 | 0.812 | 0.688 | 0.607 | 0.728 | 0.737 | 0.993 | 1.07 | 0.995 | 1.07 | 1.04
6 | LK-2 |  | 0.766 | 0.76 | 0.943 | 0.61 |  | 0.205 | 0.202 | 0.243 | 0.219 | 0.553 | 0.44 | 0.604 | 0.304 | 0.469 |  |  |  |  | 
7 | NCI-H1395 | 1.11 | 1.08 |  | 1.3 | 0.928 |  |  |  |  |  | 0.981 | 1.15 | 1.14 | 1.02 | 0.673 |  |  |  |  | 
8 | ABC-1 | 1.05 | 0.785 | 0.84 | 0.714 | 0.923 | 1.03 | 0.988 | 1.03 | 1.04 | 1.43 | 0.673 | 0.462 | 0.537 | 0.421 | 0.41 | 0.368 | 0.257 | 0.285 | 0.299 | 0.372
9 | RERF-LC-KJ | 0.904 | 0.848 | 0.748 | 0.811 | 0.736 | 0.831 | 0.829 | 0.787 | 0.77 | 0.718 | 0.862 | 0.792 | 0.751 | 0.791 | 0.793 | 1.24 | 1.11 | 0.994 | 0.958 | 0.974
10 | LU99A | 0.479 | 0.487 | 0.555 | 0.5 | 0.504 | 0.522 | 0.479 | 0.607 | 0.568 | 0.603 | 0.593 | 0.522 | 0.441 | 0.47 | 0.291 | 1.16 | 1.09 | 1.09 | 1.13 | 0.964
11 | NCI-H650 | 1.07 | 1.12 |  | 1.24 | 1.09 | 0.586 | 0.601 |  | 0.771 | 0.797 | 1.08 | 0.93 | 0.861 | 0.787 | 0.456 | 0.702 | 0.859 |  | 0.725 | 0.879
12 | NCI-H1944 | 0.721 | 0.789 |  | 0.833 | 0.748 | 0.939 | 0.995 |  | 1.24 | 1.18 | 1.08 | 0.79 | 0.643 | 0.606 | 0.428 |  |  |  |  | 
13 | ChaGo-K-1 |  |  |  |  |  | 1.07 | 1.11 |  | 1.16 | 1.21 |  |  |  |  |  | 0.902 | 0.94 |  | 0.987 | 0.979
14 | NCI-H1793 | 0.979 | 1.02 | 0.654 | 0.668 | 0.675 |  |  |  |  |  | 0.806 | 0.523 | 0.309 | 0.302 | 0.296 |  |  |  |  | 
15 | A549 | 0.863 | 0.736 | 0.843 | 0.808 | 0.691 | 0.631 | 0.755 | 0.724 | 0.828 | 0.75 | 0.461 | 0.387 | 0.203 | 0.231 | 0.0933 |  |  |  |  | 
16 | NCI-H2170 |  | 0.794 | 0.757 | 0.617 | 0.649 |  | 1.13 | 1.35 | 1.16 | 1.15 |  |  |  |  |  |  |  |  |  | 
17 | NCI-H1650 |  |  |  |  |  | 0.908 | 0.889 | 0.856 | 1.06 | 1.05 |  |  |  |  |  | 0.189 | 0.19 | 0.2 | 0.19 | 0.222
18 | NCI-H358 | 0.824 | 0.776 | 0.752 | 0.833 | 0.791 | 0.56 | 0.497 | 0.606 | 0.601 | 0.633 | 0.587 | 0.438 | 0.399 | 0.332 | 0.28 |  |  |  |  | 
19 | SK-MES-1 | 0.763 | 0.853 | 0.84 | 0.963 | 1.02 | 0.972 | 0.84 | 1.03 | 0.976 | 0.967 | 1.02 | 0.938 | 0.779 | 0.505 | 0.338 |  |  |  |  | 

Reference: the supplement of paper PMC10307832
